Measurements from paper PMC9060753, “pDobz/pDobb protected diaminodiacid as a novel building block for peptide disulfide-bond mimic synthesis” (RSC Advances, 2019).
Bridge positions count the residues as written; N and C are the ends. Square brackets hold non-standard residues; d marks the D form. Triazole bridges read from a SMILES are 1,4-linked. Peptide text beside a SMILES is read from it. Dap(N3) = [N-]=[N+]=NC[C@H](N)C(=O)O; Pra = C#CC[C@H](N)C(=O)O

Assays:
[1] = pH 7.4
α-chymotrypsin = α-chymotrypsin (Bos taurus, UniProt P00766); settings: pH 7.4

SMILES	Reduction stability in aqueous DTT solution (percent residual peptide) [1]	Protease stability under α-chymotrypsin treatment (percent residual peptide) (α-chymotrypsin)	Difference of protease stability versus native model peptide contryphan-Vn (α-chymotrypsin)
NCCCC[C@@H]1NC(=O)[C@@H](Cc2c[nH]c3ccccc23)NC(=O)[C@@H]2CCCN2C(=O)[C@@H](NC(=O)[C@H](CC(=O)O)NC(=O)CN)CSSC[C@@H](C(N)=O)NC(=O)[C@H](Cc2c[nH]c3ccccc23)NC(=O)[C@@H]2CCCN2C1=O [contryphan-Vn, Contryphan-Vn[1,9], reference compound] (H-GDCP[dW]KPWC-NH2; disulfide 3-9)	completely reduced	degraded completely	
NCCCC[C@@H]1NC(=O)[C@@H](Cc2c[nH]c3ccccc23)NC(=O)[C@@H]2CCCN2C(=O)[C@@H](NC(=O)[C@H](CC(=O)O)NC(=O)CN)Cn2cc(nn2)C[C@@H](C(N)=O)NC(=O)[C@H](Cc2c[nH]c3ccccc23)NC(=O)[C@@H]2CCCN2C1=O [Compound 14, [Ala1(&^1),Ala7(&^2)]contryphan-Vn[1,9][(&^1-1,4-[1,2,3]-triazolyl-&^2)]] (H-GD[Dap(N3)]P[dW]KPW[Pra]-NH2; triazole 3-9)	remained intact	degraded completely	No significant differences
